The values that follow are results of earlier work, collected in PMC10288581 (Frontiers in Pharmacology, 2023).

The conditions of series [1]: ref Langtry and Brogden, 1997; cited from earlier work.
For series [2] the following is noted: ref Kristin et al., 2017; cited from earlier work.
A further series concerns CYP2C19. Also on record: method as in Obach et al., 2006. The settings on record: in-vitro data; ref Obach et al., 2006; cited from earlier work.
The test system of another series is 2C9. Also on record: method as in Obach et al., 2006. The settings on record: in-vitro data; ref Obach et al., 2006; cited from earlier work.
Series [3] concerns CYP3A4. Set-up: method as in Obach et al., 2006; Galetin et al., 2007. The note with it: ref Obach et al., 2006; Galetin et al., 2007; cited from earlier work.
Series [4] deals with CYP3A4. Also on record: method as in Elsby et al., 2019. The note with it: ref Elsby et al., 2019; read-out: inhibition constant Ki; cited from earlier work.
The next series relates to P-glycoprotein. Set-up: method as in Vermeer et al., 2016. The settings on record: in-vitro data; ref Vermeer et al., 2016; cited from earlier work.
Another series deals with MRP2. Also on record: method as in Vermeer et al., 2016. The note with it: in-vitro data; ref Vermeer et al., 2016; cited from earlier work.
For another series, the system named is OATP1B1. Also on record: method as in Müller and Fromm, 2011; Vermeer et al., 2016. The note with it: ref Müller and Fromm, 2011; Vermeer et al., 2016; cited from earlier work.
A further series concerns OATP 1B3. Set-up: method as in Müller and Fromm, 2011; Vermeer et al., 2016. The note with it: ref Müller and Fromm, 2011; Vermeer et al., 2016; cited from earlier work.

The Ki is the dissociation constant of the complex between target and ligand, obtained from inhibition or displacement. By IC50 is commonly meant the concentration at which inhibition is half-maximal. With `CC[C@H]1OC(=O)[C@H](C)[C@@H](O[C@H]2C[C@@](C)(OC)[C@@H](O)[C@H](C)O2)[C@H](C)[C@@H](O[C@@H]2O[C@H](C)C[C@H](N(C)C)[C@H]2O)[C@](C)(OC)C[C@@H](C)C(=O)[C@H](C)[C@@H](O)[C@]1(C)O` [clarithromycin, 6-O-Methylerthromycin], the protein binding in series [1] is 42%–72. For the same compound, the BCS class entry in series [2] is reported as “class-II”. Moreover, the “inhibitory concentration of CYP2C19” value with CYP2C19 is recorded as 11%. For the same compound, the “inhibitory concentration of 2C9” value in the series with 2C9 is reported as 4%. Besides, the “potential to inhibit the CYP3A4 at the intestinal level” value in the series on CYP3A4 [3] is reported as 60%–70. In the series on CYP3A4 [4], the Ki is […]. Besides, the IC50 in the series with P-glycoprotein is 8.9 ± 0.5 µM; in the series on MRP2 it was above 50 µM; with OATP1B1, 5.3 ± 1.3 µM; with OATP 1B3, 14 ± 2 µM.
